# From US20220073642A1, “METHODS OF USING SURUFATINIB IN TREATING ADVANCED PANCREATIC AND EXTRA-PANCREATIC NEUROENDOCRINE TUMORS” (HUTCHISON MEDIPHARMA LIMITED, priority 2020, published 2022)
# “And” between values parts separate entries of the source, which are not always exact repeats. Equal entries are not always repeated.
# What was measured:
# [1] = SANET-ep Phase III study, safety and exposure (NCI CTCAE v4.03); assay type: in vivo, human; settings: N = 129
# Protocol: (§1) This study is a randomized, double-blind, placebo-controlled, multi-center Phase III study to assess the efficacy and safety of Surufatinib in treating advanced extra-pancreatic neuroendocrine tumors.
# (§2) Surufatinib, 300 mg, once daily (QD), orally
# (§3) Continuous administration (every 4 weeks as a treatment cycle).
# [2] = test system: advanced, well-differentiated pancreatic neuroendocrine tumors; assay: SANET-p Phase III study, efficacy (RECIST 1.1); assay type: in vivo, human; settings: for Odds ratio, Disease control rate / Odds ratio, Objective response rate: vs placebo
# Text: (§4) The targeted population are progressive, locally advanced or distant metastatic, low- or intermediate grade (G1 or G2) pancreatic NETs patients. G1 is defined as <2 mitoses/10 high-power field [HPF] and/or <3% Ki-67 index; G2 is defined as 2-20/10 HPF and/or 3-20% Ki-67 index. If the mitotic ratio and Ki-67 index correspond to different grade, the higher grade should be used to assign classification. All patients must provide tumor samples for central pathology review to check as of whether the diagnostics and grade score comply with inclusion criteria. Patients must have radiological documentation of progression of disease within 12 months prior to randomization. Patients must have previously progressed no more than two types of systemic anti-tumor therapy, including long-acting somatostatin analogs (SSAs), interferon, PRRT (peptide receptor radionuclide therapy), mammalian target of rapamycin (mTOR) inhibitors or chemotherapy (all chemotherapies are deemed as a single therapy regardless of drug or time); patients who are unable or unwilling to receive such treatments are also eligible if all other criteria are met.
# Approximately 195 patients will be randomly assigned (in 2:1 ratio) to the following treatment groups based on interactive web response system IWRS:
# as §2, §3
# (§5) According to the randomized result, the patients will receive continuous oral treatment, every 4-week treatment cycle until progression of disease occurs, intolerable toxicity or other protocol-specified end-of-treatment criteria is met.
# (§6) In accordance with RECIST 1.1, the tumor should be assessed every 8 weeks (±3 days) within the first year and every 12 weeks (±3 days) after the patient has been treated for more than one year.
# (§7) 1) Primary therapeutic endpoint: PFS (according to RECIST 1.1 criteria)
# (§8) 2) Secondary therapeutic endpoint: Objective Response Rate of the tumor (ORR), Disease Control Rate (DCR), Duration of Response (DoR), Time to Response (TTR) and Overall Survival (OS) (according to RECIST 1.1 criteria)
# NETs = assay: Phase I dose escalation clinical study, extension stage (NCT02133157); assay type: in vivo, human; settings: 21 efficacy evaluable patients with NETs
# Text: This multi-center, open-label, dose-escalation phase I study investigated the safety, pharmacokinetic characteristics, and preliminary anti-tumor activity of surufatinib in patients with advanced solid tumors. The primary objective was to determine the maximum tolerated dose (MTD), recommended phase II trial dose (RPTD), and the safety profile of Surufatinib when administered to patients with advanced malignant solid tumors. A secondary objective was to evaluate the pharmacokinetic profile of Surufatinib, and exploratory objectives included evaluating the ORR among patients given Surufatinib therapy and determining whether biomarkers for angiogenesis might reflect any clinical efficacy shown by Surufatinib. A modified Fibonacci 3+3 construct was used to design this dose escalation study and determine the MTD of Surufatinib.
# In addition, similar efficacy trends have also been shown in the Phase Ib/II study of patients with NETs (Jianming Xu et al. Clin Cancer Res. 25(12):3486-3494). […] Therefore, further clinical investigation of Surufatinib is valuable.
# [3] = Solubility of surufatinib; assay type: physicochemical
# Text: As used here, the term “surufatinib” (formerly named sulfatinib”)refers to N-(2-(dimethylamino)ethyl)-1-(3-(4-(2-methyl-1H-indol-5-yloxy)pyrimidin-2-ylamino)phenyl)methanesulfonamide or N-(2-(dimethylamino)ethyl)-1-(3-(4-(2-methyl-1H-indol-5-yloxy)pyrimidin-2-ylamino)phenyl)methanesulfonamide. Surufatinib is a small-molecule kinase inhibitor which mainly acts on VEGFRs-1, 2, 3, the FGFR1 and CSF1R. Surufatinib is a study drug formulated as an odorless, white or off-white powder in capsules, with strengths of 50 mg and 200 mg. […] Herein, “surufatinib” may be referred to as “drug,” “active agent,” “a therapeutically active agent,” or “API.”
# [4] = test system: advanced extra-pancreatic neuroendocrine tumors; assay: SANET-ep Phase III study, efficacy (RECIST 1.1); assay type: in vivo, human
# Text: as §1
# The targeted population are progressive, locally advanced or distant metastatic extra-pancreatic NETs (including, but not limited to: lungs, thymus gland and gastrointestinal origins like stomach, duodenum, liver, jejunum, ileum, colon, caecum, vermiform appendix and rectum, and unknown origin) patients with no possibility of radical resection of tumor, and of pathologically with low or intermediate grade (G1 or G2). For Gastrointestinal neuroendocrine tumors (GI-NETs), G1 is defined as <2 mitoses/10 high-power field
# as §4, with “[HPF]” for “The targeted population are progressive, locally advanced or distant metastatic, low- or intermediate grade (G1 or G2) pancreatic NETs patients. G1 is defined as <2 mitoses/10 high-power field [HPF]”, “index; for NETs originating from the lung and thymus gland, G1 is defined as <2 mitoses/10 HPF and no necrosis; G2 is defined as 2-10/10 HPF and/or foci of necrosis. NETs from origin other than GI-NET, lung and thymus, or from unknown origins should be graded according to the GI-NET grading criteria.” for “index.”
# Approximately 273 patients will be randomly assigned (in 2:1 ratio) to the following treatment groups based on interactive web response system IWRS:
# as §2, §3, §5, §6, §7, §8
# [5] = SANET-p Phase III study, safety and exposure (NCI CTCAE v4.03); settings: N = 113
# Text: SANET-p (NCT02589821) is a randomized, double-blind, placebo-controlled Phase III study evaluating the efficacy and safety of surufatinib compared to placebo in patients with progressive, advanced (unresectable local progression or distant metastasis), well-differentiated pancreatic neuroendocrine tumors.
# Continuous administration (every 4 weeks as a treatment cycle). Surufatinib can be taken with or without food and should be taken as a single administration per day. It is recommended to take the drug at the same time every day. If the patient vomits after dosing surufatinib, there is no need to make up.
# During the treatment, physician should closely monitor the patients and adjust dosage according to the safety and tolerability of individual patients, including dose interruption, dose reduction or permanently discontinue treatment. The dose adjustment should follow the guidance of interruption first and then dose reduction.
# advanced pancreatic NETs = assay: phase 1 study of surufatinib in patients from the United States; assay type: in vivo, human
# Protocol: Although this trial was conducted fully in a Chinese patient population, the results appear to be applicable to Western patients. Encouraging results have been reported from an ongoing phase 1 study of surufatinib in patients from the United States with heavily treated advanced pancreatic NETs (4 median prior lines of therapy), with an objective response rate of 25.0% (4/16: 3 confirmed partial response and 1 unconfirmed partial response). The safety profile observed in this Western patient population was similar to those observed in the SANET-p trial, as well as in other clinical studies of surufatinib in NETs patients.
# As compared with other trials involving patients with extra-pancreatic NETs, the population enrolled in this study was heterogenous. In addition, only Chinese patients were enrolled in this study, which may limit the extrapolation of the results to other populations: however, historically no ethnic differences in the efficacy of antiangiogenic agents for NETs have been reported.
# [6] = treatment-related AE, safety population
# [7] = ITT set, 95% CI, listed as surufatinib
# [8] = treatment-related AE, safety set
smiles,measurement,setting,value
"Cc1cc2cc(Oc3ccnc(Nc4cccc(CS(=O)(=O)NCCN(C)C)c4)n3)ccc2[nH]1 [Surufatinib, N-(2-(dimethylamino)ethyl)-1-(3-((4-((2-methyl-1H-indol-5-yl)oxy)pyrimidin-2-yl)amino)phenyl)-methanesulfonamide]",Discontinuation due to proteinuria,[1],1.6%
same,Discontinuation due to urine protein present,[1],2.3%
same,hypertension resulting in dose interruption or reduction,[1],15.5%
same,proteinuria resulting in dose interruption or reduction,[1],29.5%
same,treatment discontinuation for adverse events,[1],14.7%
same,"Treatment-related adverse event, any grade",[1]; safety population,97.7%
same,"ALT increased, ≥Grade 3",[1]; [6],3.1%
same,"AST increased, ≥Grade 3",[1]; [6],3.9%
same,"Anemia, ≥Grade 3",[1]; [6],4.7%
same,"Hyperbilirubinemia, ≥Grade 3",[1]; [6],3.9%
same,"Hypertension, ≥Grade 3",[1]; [6],36.4%
same,"Protein urine present, ≥Grade 3",[1]; [6],3.9%
same,"Proteinuria, ≥Grade 3",[1]; [6],19.4%
same,Duration of response,[2]; BIIRC-assessed,15.2 months
same,Time to response,[2]; BIIRC-assessed,3.9 months
same,"Best overall response: Non-complete response, non-progressive disease","[2]; BIIRC-assessed, N = 104",0 n
same,"Odds ratio, Disease control rate",[2]; BIIRC-assessed,2.5
same,"Odds ratio, Objective response rate",[2]; BIIRC-assessed,8.8
same,"PFS (BIIRC assessment), median","[2]; ITT set, N = 113",13.9 month
same,"PFS (Investigator's assessment), median","[2]; ITT set, N = 113, 300 mg QD orally",10.9 month
same,"PFS (BIIRC assessment), HR (Surufatinib/Placebo)","[2]; ITT set, 95% CI","0.339 (0.209, 0.549)"
same,"PFS (Investigator's assessment), HR (Surufatinib/Placebo)","[2]; ITT set, 95% CI","0.491 (0.319, 0.755)"
same,"PFS (BIIRC assessment), HR (Surufatinib/Placebo)",[2]; [7],0.34
same,"PFS (Investigator's assessment), HR (Surufatinib/Placebo)",[2]; [7],0.49
same,"DoR, median","[2]; Table 4, N = 15",15.2 month
same,"TTR, median","[2]; Table 4, N = 15",3.9 month
same,"Disease control rate, BIIRC-assessed","[2]; interim ITT set, N = 104",84.6%
same,"Disease control rate, investigator-assessed","[2]; interim ITT set, N = 104",80.8%
same,"Objective response rate, BIIRC-assessed","[2]; interim ITT set, N = 104",14.4%
same,"Objective response rate, investigator-assessed","[2]; interim ITT set, N = 104",19.2%
same,median PFS longer than in the placebo cohort,[2]; investigator assessment,7.2 months
same,reduction of the risk of disease progression/death vs placebo,[2]; investigator assessment,50.9% and 51%
same,reduction of the risk of disease progression/death vs placebo,"[2]; investigator assessment, listed as surufatinib",51%
same,Duration of response,[2]; investigator-assessed,7.4 months
same,Time to response,[2]; investigator-assessed,3.8 months
same,Best overall response: Partial response,"[2]; investigator-assessed, N = 104",20 n
same,"Odds ratio, Disease control rate",[2]; investigator-assessed,2.1
same,"Odds ratio, Objective response rate",[2]; investigator-assessed,12.4
same,"DCR, OR (odds ratio) vs placebo","[2]; investigator, 95% CI","2.1 (0.9, 4.8)"
same,"ORR, OR (odds ratio) vs placebo","[2]; investigator, 95% CI","12.4 (1.8, 522.8)"
same,DCR,NETs,85.7%
same,ORR,NETs,38.1%
same,not evaluable for response,NETs,3 patients
same,patients achieved PR,NETs,8 patients
same,patients achieved SD,NETs,10 patients
same,solubility in methyl alcohol or ethyl alcohol,[3]; methyl alcohol or ethyl alcohol,slightly soluble
same,solubility in water,[3]; water,insoluble
same,Duration of response,[4]; BIIRC-assessed,5.6 months
same,Time to response,[4]; BIIRC-assessed,2.9 months
same,Disease control rate,"[4]; BIIRC-assessed, N = 126",77.8%
same,objective response rate,"[4]; BIIRC-assessed, N = 126",7.9%
same,Best overall response: Partial response,"[4]; Investigator-assessed, N = 126",13 n
same,Disease control rate,"[4]; Investigator-assessed, N = 126",86.5%
same,objective response rate,"[4]; Investigator-assessed, N = 126",10.3%
same,median progression-free survival as assessed by the investigators,"[4]; N = 129, 300 mg QD orally",9.2 months
same,"progression-free survival HR vs placebo, BIIRC-assessment",[4]; in vivo,0.66
same,"progression-free survival HR vs placebo, investigators",[4]; in vivo,0.33
same,"progression-free survival HR vs placebo, post-hoc adjudicated BIIRC results",[4]; in vivo,0.57
same,Duration of response,[4]; investigator-assessed,5.6 months
same,Time to response,[4]; investigator-assessed,3.7 months
same,reduction of the risk of disease progression or death compared with placebo,[4]; investigators,67%
same,"HR for median progression-free survival, NETs of unknown or uncommon tumor origins",[4]; post-hoc subgroup analysis,0.50
same,"median progression-free survival, BIIRC-assessment",[4]; sensitivity analysis,7.4 months
same,"median progression-free survival, patients previously treated with everolimus","[4]; subgroup, 7.8% of patients",7.4 months
same,on-treatment deaths attributed to adverse events,[5],Two
same,"Arthralgia, ≥Grade 3",[5]; [8],0 n
same,"Back pain, ≥Grade 3",[5]; [8],0 n
same,"Bilirubin conjugated increased, ≥Grade 3",[5]; [8],0 n
same,"Blood creatinine increased, ≥Grade 3",[5]; [8],0 n
same,"Blood lactate dehydrogenase increased, ≥Grade 3",[5]; [8],0 n
same,"Blood thyroid stimulating hormone increased, ≥Grade 3",[5]; [8],0 n
same,"Decreased appetite, ≥Grade 3",[5]; [8],0 n
same,"Dizziness, ≥Grade 3",[5]; [8],0 n
same,"Fatigue, ≥Grade 3",[5]; [8],0 n
same,"Haemoglobin increased, ≥Grade 3",[5]; [8],0 n
same,"Headache, ≥Grade 3",[5]; [8],0 n
same,"Hyperbilirubinaemia, ≥Grade 3",[5]; [8],0 n
same,"Hypercholesterolaemia, ≥Grade 3",[5]; [8],0 n
same,"Hypoalbuminaemia, ≥Grade 3",[5]; [8],0 n
same,"Hypothyroidism, ≥Grade 3",[5]; [8],0 n
same,"Nausea, ≥Grade 3",[5]; [8],0 n
same,"Occult blood positive, ≥Grade 3",[5]; [8],0 n
same,objective response rate,"advanced pancreatic NETs; advanced pancreatic NETs, 2/15",13.3%
same,Disease control rate,"advanced pancreatic NETs; advanced pancreatic NETs, 11/15",73.3%
same,objective response rate,"advanced pancreatic NETs; heavily treated advanced pancreatic NETs, 4/16 (3 confirmed, 1 unconfirmed partial response)",25.0%
